Test results: article PMC8222354 (2021)

What was measured:
[1] = test system: Tt preQ1-I RNA wildtype (RNA, riboswitch) CUGGGUCGCAGUAACCCCAGUUAACAAAACAAG; assay: methylation kinetics, anion-exchange HPLC (kobs versus ligand concentration); details: 100 mM KCl, 2 mM MgCl2; MES, pH 6.0, 37 °C; apparent Michaelis constant; ligand methylates C15 N3 (covalent methyl transfer)
[2] = test system: Tt preQ1-I RNA C15U (RNA, riboswitch) CUGGGUCGCAGUAAUCCCAGUUAACAAAACAAG; assay: isothermal titration calorimetry; details: 100 mM KCl, 2 mM MgCl2; 50 mM MES, pH 6.0, 20 °C
[3] = test system: Tt preQ1-I RNA wildtype (RNA, riboswitch) CUGGGUCGCAGUAACCCCAGUUAACAAAACAAG; assay: isothermal titration calorimetry; details: 100 mM KCl, 2 mM MgCl2; 50 mM MES, pH 6.0, 20 °C

Compound: COc1nc(N)nc2[nH]cc(CN)c12
- Km,app [1]: ~ 230 μM
- Kd^ITC [2]: 72.2 ± 2.1 µM

Compound: NCc1c[nH]c2nc(N)[nH]c(=O)c12
- Kd^ITC [3]: 0.043 ± 0.0019 µM
